The record followed here is US12162857B2, “Antiviral compounds” (priority 2022, dated 2024).

Experiment [1] relates to Human RSV-A (“Long” strain). Put plainly: RSV-A assay: CPE in Hep-2 cells, ATPlite readout. In kind it is cell-based. To be noted: human respiratory syncytial virus, 120 h, MOI 0.1, 5-day incubation. The source says:
Hep-2 cells, (originally derived from tumors grown in irradiated-cortisonised weanling rats that had been injected with epidermoid carcinoma tissue from a person's larynx, but later found to be indistinguishable from HeLa cells by PCR DNA analysis), were used for the culturing of genotype A, “Long” strain RSV. Flasks were inoculated with RSV and viral stocks were collected once cytopathic effect (CPE) was greater than 90%. Viral stocks in 25% sucrose media were snap frozen using liquid nitrogen to increase viral stability. Viral stock titers were quantified by tissue culture infectious dose 50% (TCID50) using 8,000 cells per well and 3-fold viral dilutions across a 96-well plate, cultured for 4 days. Viral stock titers were also quantified by a plaque forming unit assay, as described elsewhere.
Following extensive parameter testing, the final assay is run as follows: Hep-2 cells are seeded into the inner 60 wells of a 96-well plate at 8,000 cells per well in a volume of 50 μL using Growth Media (DMEM without phenol red, 1% L-Glut, 1% Penn/Strep, 1% nonessential amino acids, 10% heat-inactivated FBS). 2-fold serial dilutions of control and test compounds are added to the wells in duplicate in a total volume of 25 μL. Viral stock is then added to the wells at a multiplicity of infection (MOI) of 0.1 in a volume of 25 μL, bringing the total volume of each well to 100 μL. The MOI is calculated using the PFU/mL, or TCID50 if unavailable. Each 96-well plate has a control column of 6 wells with cells and virus but no compound (negative control, max CPE), a column with cells but no compound or virus (positive control, minimum CPE), and a column with no cells or virus or compound (background plate/reagent control). The control wells with cells but no virus are given an additional 25 μL of growth media containing an equal quantity of sucrose as those wells receiving the viral stock in order to keep consistent in media and volume conditions. The outer wells of the plate are filled with 125 μL of moat media (DMEM, 100 Penn/Strep) to act as a thermal and evaporative moat around the test wells. Following a 5-day incubation period, the plates are read using ATPlite (50 uL added per well), which quantifies the amount of ATP (a measure of cell health) present in each well. Assay plates are read using the Envision luminometer. […] EC50 ranges are as follows: A<0.01 μM; B 0.01-0.05 μM; C>0.05 μM.
(In general: In ATP-based viability assays light output follows the ATP content of the culture.)

A further experiment concerns HMPV A2 TN/94-49. In words: HMPV antiviral assay: LLC-MK2 cells, ATP-Lite readout. It is filed as cell-based. To be noted: LLC-MK2, 168 h, MOI 0.005, 7 days incubation. The procedure, abridged: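 LLC-MK2 cells (5,000/well) were infected in suspension with HMPV A2 TN/94-49 at MOI 0.005 in serum-free OptiMEM with 2 μg/mL final TPCK-trypsin, then incubated for 7 days at 37 °C. Compounds were tested in duplicate from 2 μM in 10-point 2.5-fold dilutions. ATP-Lite luminescence, normalised to virus-only and cells-only controls as % cell health, gave EC50 by four-parameter fit.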

As for `CC(C)(O)c1cc([C@@](O)(CNC(=O)c2cc(F)c3nn(C(F)F)cc3c2)C2CC2)nc(-c2ccc(F)cc2)c1F` (single isomer, unassigned) [Example 7], the results for the EC50 (in experiment [1]; with HMPV A2 TN/94-49) were greater than 50 nM and greater than 1000 nM, respectively.

With `COc1cc(C(=O)NC[C@](O)(c2cc(C(C)(C)O)c(F)c(-c3ccc(F)cc3)n2)C2CC2)cc2cc(C3CC3)nn12` (single isomer, unassigned) [Example 8], the values for the EC50 (in experiment [1]; with HMPV A2 TN/94-49) were less than 10 nM and less than 1000 nM, respectively.

`COc1cc(C(=O)NC[C@](O)(c2cc(C3(C(N)=O)CC3)c(F)c(-c3cc(Cl)c(F)cc3F)n2)C2CC2)cc2cn(C(F)F)nc12` (single isomer, unassigned) [Example 9]: the results for the EC50 (in experiment [1]; with HMPV A2 TN/94-49) were 10 to 50 nM and greater than 1000 nM, respectively.

Consider `COc1cc(C(=O)NC[C@](O)(c2cc(C3(C(N)=O)CC3)c(F)c(-c3cc(Cl)c(F)cc3F)n2)C2CC2)cc2cn(C3CC3)nc12` (single isomer, unassigned) [Example 11], for which the EC50 (in general, the concentration at which the effect is half-maximal) in experiment [1] lay within 10 to 50 nM.

In the case of `COc1cc(C(=O)NC[C@](O)(c2cc(C3(C#N)CC3)c(F)c(-c3cc(Cl)c(F)cc3F)n2)C2CC2)cc2cn(C3CC3)nc12` (single isomer, unassigned) [Example 12], the EC50 in experiment [1] was 10 to 50 nM.

Take `COc1cc(C(=O)NC[C@](O)(c2cc(C3(C(N)=O)CC3)c(F)c(-c3cc(Cl)c(F)cc3F)n2)C2CC2)cc2cn(C3(F)CC3)nc12` (single isomer, unassigned) [Example 13]: in experiment [1], the EC50 lay in the range of 10 to 50 nM.

In the case of `NC(=O)C1(c2cc([C@@](O)(CNC(=O)c3cc(OC4CC4)c4nn(C5CC5)cc4c3)C3CC3)nc(-c3cc(Cl)c(F)cc3F)c2F)CC1` (single isomer, unassigned) [Example 14], the EC50 in experiment [1] was 10 to 50 nM.

`N#CC1(c2cc([C@@](O)(CNC(=O)c3cc(OC4CC4)c4nn(C5CC5)cc4c3)C3CC3)nc(-c3cc(Cl)c(F)cc3F)c2F)CC1` (single isomer, unassigned) [Example 15]: the EC50 in experiment [1] fell in the range of 10 to 50 nM.

Take `NC(=O)C1(c2cc([C@@](O)(CNC(=O)c3cc(OC4CC4)c4nn(C5(F)CC5)cc4c3)C3CC3)nc(-c3cc(Cl)c(F)cc3F)c2F)CC1` (single isomer, unassigned) [Example 16]: the EC50 in experiment [1] lay in the range of 10 to 50 nM.

On to `N#CC1(c2cc([C@@](O)(CNC(=O)c3cc(OC4CC4)c4nn(C5(F)CC5)cc4c3)C3CC3)nc(-c3cc(Cl)c(F)cc3F)c2F)CC1` (single isomer, unassigned) [Example 17], for which the EC50 in experiment [1] lay in the range of 10 to 50 nM.

In the case of `NC(=O)C1(c2cc([C@@](O)(CNC(=O)c3cc(OC4CC4)c4nn(C(F)F)cc4c3)C3CC3)nc(-c3cc(Cl)c(F)cc3F)c2F)CC1` (single isomer, unassigned) [Example 18], the EC50 is 10 to 50 nM in experiment [1] and greater than 1000 nM in the experiment with HMPV A2 TN/94-49.

In the case of `COc1cc(C(=O)NC[C@](O)(c2cc(C3(C(N)=O)CC3)c(F)c(-c3cc(Cl)c(F)cc3F)n2)C2CC2)cc2cc(Cl)c(C)nc12` (single isomer, unassigned) [Example 19], the figures for the EC50 (in experiment [1]; in the experiment with HMPV A2 TN/94-49) were less than 10 nM and greater than 1000 nM, respectively.

`COc1cc(C(=O)NC[C@](O)(c2cc(C3(C(N)=O)CC3)c(F)c(-c3ccc(F)c(Cl)c3F)n2)C2CC2)cc2cn(C3CC3)nc12` (single isomer, unassigned) [Example 20]: the EC50 in experiment [1] was 10 to 50 nM; in the experiment with HMPV A2 TN/94-49, greater than 1000 nM.

For `COc1cc(C(=O)NC[C@](O)(c2cc(C3(C(N)=O)CC3)c(F)c(-c3ccc(F)c(Cl)c3F)n2)C2CC2)cc2cn(C(F)F)nc12` (single isomer, unassigned) [Example 21], the EC50 in experiment [1] was less than 10 nM; with HMPV A2 TN/94-49, greater than 1000 nM.

Turning to `COc1cc(C(=O)NC[C@](O)(c2cc(C3(C(N)=O)CC3)c(F)c(-c3ccc(F)c(Cl)c3F)n2)C2CC2)cc2cn(C3(F)CC3)nc12` (single isomer, unassigned) [Example 22], the EC50 in experiment [1] is less than 10 nM; in the experiment with HMPV A2 TN/94-49, greater than 1000 nM.

As for `COc1cc(C(=O)NC[C@](O)(c2cc(C3(C(N)=O)CC3)cc(-c3ccc(F)c(Cl)c3F)n2)C2CC2)cc2cn(C(F)F)nc12` (single isomer, unassigned) [Example 27], in experiment [1], the EC50 is less than 10 nM.

On to `COc1cc(C(=O)NC[C@](O)(c2cc(C(F)(F)C(N)=O)c(F)c(-c3ccc(F)c(Cl)c3F)n2)C2CC2)cc2cn(C3CC3)nc12` (single isomer, unassigned) [Example 32], for which, in experiment [1], the EC50 was in the range of 10 to 50 nM.

In turn, `COc1cc(C(=O)NC[C@](O)(c2cc(C(F)(F)C(N)=O)c(F)c(-c3ccc(F)c(Cl)c3F)n2)C2CC2)cc2cn(C3(F)CC3)nc12` (single isomer, unassigned) [Example 33] had an EC50 in experiment [1] of less than 10 nM.

In experiment [1], `COc1cc(C(=O)NC[C@](O)(c2cc(C(F)(F)C(N)=O)c(F)c(-c3ccc(F)c(Cl)c3F)n2)C2CC2)cc2cn(C(F)F)nc12` (single isomer, unassigned) [Example 34] returned an EC50 of 10 to 50 nM.

`COc1cc(C(=O)NC[C@](O)(c2cc(C(F)(F)C(N)=O)c(F)c(-c3ccc(F)c(Cl)c3F)n2)C2CC2)cc2cc(Cl)c(C)nc12` (single isomer, unassigned) [Example 35] returned an EC50 in experiment [1] greater than 50 nM.

As to `NC(=O)C(F)(F)c1cc([C@@](O)(CNC(=O)c2cc(OC3CC3)c3nn(C4CC4)cc3c2)C2CC2)nc(-c2ccc(F)c(Cl)c2F)c1F` (single isomer, unassigned) [Example 36], in experiment [1], the EC50 was in the range of 10 to 50 nM.

Regarding `COc1cc(C(=O)NC[C@](O)(c2cc(C(F)(F)C(N)=O)c(F)c(-c3ccc(F)c(Cl)c3F)n2)C2CC2)ccc1OC[C@@H](C)O` (single isomer, unassigned) [Example 37], in experiment [1], the EC50 was greater than 50 nM.

In turn, `COc1cc(C(=O)NC[C@](O)(c2cc(C(F)(F)C(N)=O)c(F)c(-c3cc(Cl)c(F)cc3F)n2)C2CC2)cc2cn(C3(F)CC3)nc12` (single isomer, unassigned) [Example 39] came in with a half-maximal effective concentration (EC50) in experiment [1] of less than 10 nM.

In turn, `COc1cc(C(=O)NC[C@](O)(c2cc(C(F)(F)C(N)=O)c(F)c(-c3cc(Cl)c(F)cc3F)n2)C2CC2)cc2cn(C(F)F)nc12` (single isomer, unassigned) [Example 41] came in with an EC50 in experiment [1] of 10 to 50 nM.

`COc1cc(C(=O)NC[C@](O)(c2cc(C(F)(F)C(N)=O)c(F)c(-c3cc(Cl)c(F)cc3F)n2)C2CC2)cc2cc(Cl)c(C)nc12` (single isomer, unassigned) [Example 42] came in with an EC50 in experiment [1] greater than 50 nM.

`COc1cc(C(=O)NC[C@](O)(c2cc(C(C)(C)C(N)=O)c(F)c(-c3ccc(F)cc3)n2)C2CC2)cc2cn(C3CC3)nc12` (single isomer, unassigned) [Example 43] had an EC50 in experiment [1] of less than 10 nM.

In turn, `Cc1nc2c(OC3CC3)cc(C(=O)NC[C@](O)(c3cc(C(C)(C)C(N)=O)c(F)c(-c4ccc(F)cc4)n3)C3CC3)cc2cc1Cl` (single isomer, unassigned) [Example 44] yielded a concentration giving a half-maximal response (EC50) in experiment [1] of less than 10 nM.

The compound `Cc1nc2c(OC(F)F)cc(C(=O)NC[C@](O)(c3cc(C(C)(C)C(N)=O)c(F)c(-c4ccc(F)cc4)n3)C3CC3)cc2cc1Br` (single isomer, unassigned) [Example 45] showed an EC50 in experiment [1] of 10 to 50 nM.

Regarding `Cc1nc2c(OC(F)F)cc(C(=O)NC[C@](O)(c3cc(C(O)(C(F)(F)F)C(F)(F)F)c(F)c(-c4ccc(F)cc4)n3)C3CC3)cc2cc1Br` (single isomer, unassigned) [Example 46], the EC50 in experiment [1] was in the range of 10 to 50 nM.

In experiment [1], `COc1cc(C(=O)NC[C@](O)(c2cc(C(F)(F)C#N)c(F)c(-c3cc(Cl)c(F)cc3F)n2)C2CC2)cc2cn(C3(F)CC3)nc12` [Example 40] displayed an EC50 of 10 to 50 nM.
